Here are results for three compounds from PMC8263253, “Agonist and antagonist properties of an insect GABA-gated chloride channel (RDL) are influenced by heterologous expression conditions” (PLoS ONE, 2021).

This assay addresses BtRDL (Bombus terrestris RDL GABA-gated chloride channel) (Bombus terrestris audax, UniProt A0A8F2J2P3). As to the kind of experiment: Two-electrode voltage-clamp recording of BtRDL expressed in Xenopus oocytes. It counts as cell-based. The settings on record: for IC50: IC50 for block of GABA responses. (In general: Two-electrode voltage clamp is typically applied to oocytes expressing channels or transporters.)

Where “and” joins values, the source holds several entries; their conditions need not be identical. Equal entries are not always repeated.

Chain of BtRDL (Bombus terrestris RDL GABA-gated chloride channel) (A0A8F2J2P3 entry or part of it): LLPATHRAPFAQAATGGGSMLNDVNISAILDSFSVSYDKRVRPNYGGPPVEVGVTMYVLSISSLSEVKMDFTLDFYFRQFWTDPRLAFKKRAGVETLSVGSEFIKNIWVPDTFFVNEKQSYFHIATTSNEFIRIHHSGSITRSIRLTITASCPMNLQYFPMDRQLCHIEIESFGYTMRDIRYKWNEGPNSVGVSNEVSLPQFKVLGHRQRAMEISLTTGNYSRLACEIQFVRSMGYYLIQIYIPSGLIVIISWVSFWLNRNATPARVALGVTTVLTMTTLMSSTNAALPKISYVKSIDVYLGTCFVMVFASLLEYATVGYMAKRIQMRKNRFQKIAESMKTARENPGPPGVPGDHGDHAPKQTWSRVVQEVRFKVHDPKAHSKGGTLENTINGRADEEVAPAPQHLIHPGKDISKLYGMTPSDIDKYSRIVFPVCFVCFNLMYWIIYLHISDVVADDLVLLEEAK
Description: For convenience, these amounts of cRNA are referred to subsequently as 1 ng and 10 ng.
Xenopus were anaesthetised by immersion in 0.2% MS222 for 15 minutes (or until complete anaesthesia was confirmed by absence of leg-withdrawal and righting reflex), followed by cranial concussion, decapitation and pithing. Xenopus oocytes were isolated, maintained and injected with cRNA, as described previously [24]. […] Application of compounds was controlled by LabChart software (AD Instruments) using a BPS-8 solenoid valve solution exchange system (ALA Scientific Inc). Typically, agonists were applied for 5 s or until a plateau in the response was observed. Antagonists were pre-applied for 30 s and then co-applied with agonist for 5s or until a plateau in the response. was observed.

What is called EC50 is the concentration that produces a half-maximal response. As for `NCCCC(=O)O` [GABA, γ-aminobutyric acid], the “maximum current (Imax) to GABA” value is 0.67 ± 0.04 μA (1 ng BtRDL cRNA lacking 3'UTR, 1–3 days post-injection) and 3.4 ± 0.6 μA (BtRDL 1 ng cRNA (+3'UTR) co-expressed with DmNACHO). Further, the EC50 is, setting by setting: (GABA EC50, pGEMHE-BtRDL digested with NheI (3'UTR retained), 1 ng cRNA, three-days post-injection) 4 ± 1.1 µM; (GABA EC50, pGEMHE-BtRDL digested with XbaI (3'UTR removed), 1 ng cRNA, three-days post-injection) 27.6 ± 1.6 µM; (GABA EC50, pSP64GL-BtRDL cRNA containing 3'UTR, 1 ng, BtRDL expressed alone, three-days post-injection) 3.7 ± 0.4 µM; (GABA EC50, pSP64GL-BtRDL cRNA lacking 3'UTR, 1 ng, three-days post-injection) 31.4 ± 2.1 µM; (GABA apparent affinity EC50, BtRDL 1 ng cRNA (+3'UTR) + 10 ng cRNA CeRIC-3, Day 1) 10.6 ± 1.1 µM; (GABA apparent affinity EC50, BtRDL 1 ng cRNA (+3'UTR) + 10 ng cRNA CeRIC-3, Day 2) 5 ± 0.9 µM. The 50% effective concentration (EC50) worked out at 4.2 ± 1 µM (GABA apparent affinity EC50, BtRDL 1 ng cRNA (+3'UTR) + 10 ng cRNA CeRIC-3, Day 3); 21 ± 1.1 µM (GABA apparent affinity EC50, BtRDL 1 ng cRNA (+3'UTR) + 10 ng cRNA DmNACHO, Day 1); 14.8 ± 1.1 µM (GABA apparent affinity EC50, BtRDL 1 ng cRNA (+3'UTR) + 10 ng cRNA DmNACHO, Day 2); 4.4 ± 0.7 µM (GABA apparent affinity EC50, BtRDL (+3'UTR), 1 ng cRNA, Day 2 post-injection); 3.9 ± 0.6 µM (GABA apparent affinity EC50, BtRDL (+3'UTR), 1 ng cRNA, Day 3 post-injection); 10.8 ± 1.2 µM (GABA apparent affinity EC50, BtRDL (+3'UTR), 10 ng cRNA, Day 1 post-injection). The EC50 came out at 2 ± 0.7 µM (GABA apparent affinity EC50, BtRDL (+3'UTR), 10 ng cRNA, Day 2 post-injection); 1.8 ± 0.4 µM (GABA apparent affinity EC50, BtRDL (+3'UTR), 10 ng cRNA, Day 3 post-injection); 29.7 ± 1.1 µM (GABA apparent affinity EC50, BtRDL (-3'UTR), 1 ng cRNA, Day 1 post-injection); 28.3 ± 1.1 µM (GABA apparent affinity EC50, BtRDL (-3'UTR), 1 ng cRNA, Day 2 post-injection); 29.4 ± 1 µM (GABA apparent affinity EC50, BtRDL (-3'UTR), 1 ng cRNA, Day 3 post-injection); 27.3 ± 1.1 µM (GABA apparent affinity EC50, BtRDL (-3'UTR), 10 ng cRNA, Day 1 post-injection). The EC50 by setting is: (GABA apparent affinity EC50, BtRDL (-3'UTR), 10 ng cRNA, Day 2 post-injection) 10.8 ± 1 µM; (GABA apparent affinity EC50, BtRDL (-3'UTR), 10 ng cRNA, Day 3 post-injection) 12.5 ± 1 µM; (GABA apparent affinity EC50, BtRDL alone, 1 ng cRNA (+3'UTR), Day 2) 4.6 ± 0.9 µM; (apparent affinity for GABA, BtRDL populations with intermediate apparent affinities (summary in discussion)) ~4 µM and ~12 µM; (apparent affinity for GABA, BtRDL receptors with high apparent affinity (summary in discussion)) ~30 µM; (apparent affinity for GABA, BtRDL receptors with low apparent affinity (summary in discussion)) ~2 µM.
With `CC(C)c1cccc(C(C)C)c1O` [Propofol, propofol], the EC50 by setting is: (propofol apparent affinity (agonist activation), BtRDL with high apparent affinity for GABA (10 ng cRNA +3'UTR, three-days)) 82.9 ± 6.4 µM; (propofol apparent affinity (agonist activation), BtRDL with low apparent affinity for GABA (1 ng cRNA +3'UTR, one-day)) 198 ± 19.1 µM.
In general, IC50 refers to the midpoint of a concentration-inhibition curve. On to `C=C(C)[C@@H]1[C@H]2OC(=O)[C@@H]1[C@]1(O)C[C@H]3O[C@]34C(=O)O[C@H]2[C@]14C` [picrotoxinin], for which the IC50 (BtRDL with high apparent affinity for GABA (10 ng cRNA, pGEMHE NheI, three-days), EC50 concentration of GABA 1 μM) stood at 14 ± 1.6 µM and the half-inhibitory concentration (IC50) (BtRDL with low apparent affinity for GABA (1 ng cRNA, pGEMHE XbaI, three-days), EC50 concentration of GABA 30 μM) worked out at 1.7 ± 0.3 µM.
